# In patent publication US20180360972A1, “THERAPEUTIC COMPOUNDS” (REGENTS OF THE UNIVERSITY OF MINNESOTA, priority 2017, published 2018):
# “Also recorded” adds a separate entry of the source. Read-outs that look alike come from different tables or passages of the source.
# What was measured:
# mMC4R = biological target: T1, mMC4R (Mus musculus, UniProt P56450); test: 125I-NDP-MSH competitive binding; details: displacement of 125I-NDP-MSH; receptor subtype not printed at b283; read-out: binding affinity IC50
# T1 construct: expressed in transfected cells
# Experimental: NDP-MSH was radioiodinated with Na^125I utilizing the chloramine T procedure (26). […] HEK293 cells stably expressing wildtype mMC1R or mMC4R were maintained as described above. Transiently transfected HEK293 cells were used for binding experiments on the mMC3R. Transfection was performed in 10 cm plates using FuGene6 transfection reagent (15 μL/plate; Promega), Opti-Mem medium (1.7 mL/plate; Invitrogen), and mMC3R-Flag DNA (3.33 μg/plate) two days prior to binding experiment. One or two days preceding the competition experiments, cell were plated into 12-well tissue culture plates (Corning Life Sciences, Cat. # 353043) and grown to 90-100% confluency. On the day of the assay, media was removed gently. The cells were treated with a freshly diluted aliquot of non-labeled compound at the in well concentration being tested (ranging from 10^−12 to 10^−4 M as appropriate) in assay buffer (DMEM and 0.1% BSA) and a constant amount of ^1251-NDP-MSH (100,000 cpm/well) and were incubated at 37° C. for one hour. […] The radioactivity was quantified on WIZARD^2 Automatic Gamma Counter (PerkinElmer). […] The non-specific values used for calculations was radioactivity of the 10^−6 M unlabeled NDP-MSH. Data was analyzed by a nonlinear regression method using the PRISM program (v4.0; GraphPad Inc.) to generate and calculate dose-response curves and IC50 values.
# wild type mice = test: ICV administration, conventional cages, wild type mice; type: in vivo
# Experimental: (§1) All experiments were performed in accordance with the Institutional Animal Care and Use Committee (IACUC) at the University of Minnesota. Female and male littermates with mixed background from C57BL/6J and 129/Sv inbred strains were 8 weeks old at the time of surgeries. Mice were individually housed after surgeries and for the remainder of the experiment. Mice were maintained on a 12 hr light/dark cycle (Lights off was at 11:59 AM) in a temperature controlled room (23-25° C.). In the nocturnal feeding paradigm, mice had free access to normal chow (Harlan Teklad 2018 Diet: 18.6% crude protein, 6.2% crude fat, 3.5% crude fiber, with energy density of 3.1 kcal/g). […] Mice had free access to tap water throughout all the experiments. The cannula placement validation studies and conventional cage studies were performed in standard mouse polycarbonate conventional cages provided by University of Minnesota's Research Animal Resources (RAR). Weekly cage changes were conducted by lab research staff.
# (§2) Mice were anesthetize with a mixture of ketamine (100 mg/kg) and xylazine (5 mg/kg) and were positioned in a stereotaxic apparatus (David Kopf Instruments). A 26-gauge cannula (Cat# 81C315GS4SPC; PlasticsOne, Roanoke, Va.) was inserted in the lateral cerebral ventricle at the coordinates 1.0 mm lateral and 0.46 mm posterior to bregma and 2.3 mm ventral to the skull (Franklin, K. B. J. & Paxinos, G. The Mouse Brain in Stereotaxic Coordinates. (Academic Press, 1997)).
# (§3) Each mouse was administered hPYY and saline on different days following a crossover design in the nocturnal feeding paradigm. In the nocturnal paradigm, compound is administered 2 hours prior to lights out with free access to food and water throughout the entire experiment. There was at least a 4 day washout period between administration to ensure that normal feeding patterns and body weight returned. Food intake and body weight were manually measured 2, 4, and 6 hours after hPYY or saline administration. A mouse with a validated cannula placement for the TSE cage experiments consumed at least 1.0 g more after hPYY administration compared to saline administration 4 hours post-administration.
# (§4) As stated above, conventional cage experiments were performed in standard mouse polycarbonate conventional cages. […] All experiments followed a cross-over paradigm in which the mouse received saline and compound on different days with a washout period in between each treatment. Statistical analysis was performed using SPSS V23 software (IBM) using a multivariate general linear model followed by a Bonferroni's post hoc test. Results are presented as Mean±SEM. Statistically significant was considered p<0.05.
# male wild type mice = type: in vivo; details: for energy expenditure vs saline / food intake vs saline / respiratory exchange ratio (RER) vs saline / water intake vs saline: 5 nmols CJL-5-58 or 5 nmols each CJL-1-14 and CJL-1-80
# Experimental: as §1, §2, §3, §4
# male MC4RKO mice = test: ICV administration, conventional cages, male MC4RKO mice; type: in vivo
# Experimental: as §1, §2, §4
# In male MC4RKO mice, CJL-5-58 was administered at 5 nmols in both a nocturnal paradigm and a fasting-refeeding paradigm in standard conventional cages (FIG. 15). The dose was well handled in the nocturnal paradigm, but minimal effect was observed.
# [1] = biological target: mMC4R-NanoLuc and mMC4R-HaloTag homodimer (Mus musculus, UniProt P56450); test: NanoBRET ligand-dependent modulation of BRET signal; details: ligand at 10 μM
# Experimental: On the first day, cells were plated into 6 well plates in the morning. In the afternoon of the same day, cells were transiently transfected with mMC4R-NanoLuc® fusion protein and the MC4R-HaloTag® fusion protein by adding FuGene6 Transfection (8 μL/well, Promega), DNA (2 μg/well) in OptiMem medium (Invitrogen) at a total volume of 100 μL/well. […] Cells were incubated with transfection reagent overnight at 5% CO2 at 37° C.
# This provides the background signal and was subtracted from the final experimental signal. Plates were then developed 48 to 60 hours after transfection. Two hours before the plates were developed, 10 μL of a 10× aliquot of the ligand diluted in assay buffer was added to each well to yield the final in well concentration (10^−5, 10^−7, or 10^−9M) of each compound. For the assay buffer control, 10 μL of assay buffer was added instead of compound. […] The standard error of the mean (SEM) was derived from at least three independent experiments.
# [2] = fasting-refeeding, time after administration
# [3] = nocturnal free-feeding paradigm, 5.0 nmol ICV
# Chain of mMC4R-NanoLuc and mMC4R-HaloTag homodimer (P56450 whole entry): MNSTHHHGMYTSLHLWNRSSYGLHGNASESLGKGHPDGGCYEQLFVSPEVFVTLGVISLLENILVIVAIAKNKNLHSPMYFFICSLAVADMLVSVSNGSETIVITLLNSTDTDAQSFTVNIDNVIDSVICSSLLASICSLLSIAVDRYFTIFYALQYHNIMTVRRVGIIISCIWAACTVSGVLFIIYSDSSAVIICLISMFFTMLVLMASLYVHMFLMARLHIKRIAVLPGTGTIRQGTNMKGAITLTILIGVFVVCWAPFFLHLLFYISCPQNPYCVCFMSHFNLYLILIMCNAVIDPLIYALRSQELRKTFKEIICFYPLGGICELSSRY
# Chain of mMC4R-NanoLuc and mMC4R-HaloTag homodimer (P56450 whole entry): as above
# T1 sequence (P56450 whole entry): as above
smiles,measurement,setting,value
"CC(=O)N[C@@H](Cc1cnc[nH]1)C(=O)N[C@H](Cc1ccccc1)C(=O)N[C@@H](CCCNC(=N)N)C(=O)N[C@@H](Cc1c[nH]c2ccccc12)C(=O)NCCCOCCOCCOCCCNC(=O)COCC(=O)N[C@@H](Cc1cnc[nH]1)C(=O)N[C@H](Cc1ccc2ccccc2c1)C(=O)N[C@@H](CCCNC(=N)N)C(=O)N[C@@H](Cc1c[nH]c2ccccc12)C(N)=O [CJL-5-58, Ac-His-DPhe-Arg-Trp-(PEDG20)-His-DNal(2′)-Arg-Trp-NH2]",IC50,mMC4R,0.014 µM
same,adverse effects,"wild type mice; ICV 2.5 nmols and 5.0 nmols, conventional cages",no signs of adverse effects
same,"change in body weight vs saline, female mice",wild type mice; fasting-refeeding,Only the 2 hour time point was significant
same,"change in body weight vs saline, male mice",wild type mice; fasting-refeeding,"significant difference was observed in the change in weight of the male mice after compound administration at time points 2, 4, 6, 8, and 24 hours"
same,food intake,"wild type mice; fasting-refeeding after 22 hour fast, ICV dose response",dose dependent decrease in food intake; also recorded: reduce food intake
same,"food intake vs saline, female mice (time points of significant decrease)",wild type mice; [2],2 and 4 hours
same,"food intake vs saline, male mice",wild type mice; [2],"Significant decreased food intake was observed at 2, 4, 6, and 8 hours; also recorded: Significant decreases in food intake were observed at 2, 4, 6, and 8 hours"
same,body weight vs saline,wild type mice; [3],no statistically significant effect
same,food intake vs saline,wild type mice; [3],no statistically significant effect
same,"RER, CJL-5-58 vs co-administration of CJL-1-14 and CJL-1-80",male wild type mice; fasting paradigm,"significant differences in RER at the 2, 3, 6, and 7 hour time points"
same,activity vs saline,male wild type mice; fasting paradigm,no significant differences were observed in activity
same,"energy expenditure, CJL-5-58 vs co-administration of CJL-1-14 and CJL-1-80",male wild type mice; fasting paradigm,significantly higher for CJL-5-58 at the 13 and 17 hour time points
same,"food intake, CJL-5-58 vs co-administration of CJL-1-14 and CJL-1-80",male wild type mice; fasting paradigm,significant differences in the food intake at 2 and 4 hour time point
same,number of mice that died,male wild type mice; fasting paradigm,one
same,energy expenditure reached after treatment,"male wild type mice; fasting paradigm, 5 nmol dose, baseline c.a. 12",17 to 19 kcal/h/kg
same,energy expenditure vs saline,male wild type mice; fasting paradigm,"significantly lower for the first 3 hours post-treatment; also recorded: increased energy expenditure is observed 15, 17, and 21 hours after compound administration"
same,food intake vs saline,male wild type mice; fasting paradigm,decrease in food intake up to 12 hours after administration
same,respiratory exchange ratio (RER) vs saline,male wild type mice; fasting paradigm,significantly lower RER was observed for the first 9 hours and at 17 hours
same,water intake vs saline,male wild type mice; fasting paradigm,"decrease in water intake was observed with 5 nmols of CJL-5-58 at time points 4, 6, 8, 10, and 12 hours"
same,number of adverse reactions,"male wild type mice; fasting paradigm, within 30 minutes of injection",four
same,time to recovery from adverse reactions,male wild type mice; mice experiencing adverse reactions,< 1 h
same,activity vs saline,male wild type mice; nocturnal paradigm,increase in activity was observed during the first 5 hours after administration
same,"any parameter, CJL-5-58 vs co-administration of CJL-1-14 and CJL-1-80",male wild type mice; nocturnal paradigm,no significant differences were observed for any parameter
same,number of adverse reactions,male wild type mice; nocturnal paradigm,2
same,number of mice that died,male wild type mice; nocturnal paradigm,one
same,energy expenditure vs saline,male wild type mice; nocturnal paradigm,"increase in energy expenditure was observed 5, 13, 15, and 16 hours after treatment"
same,food intake vs saline,male wild type mice; nocturnal paradigm,no significant effect was observed
same,respiratory exchange ratio (RER) vs saline,male wild type mice; nocturnal paradigm,significantly lowered RER values only until 2 hours after administration
same,water intake vs saline,male wild type mice; nocturnal paradigm,no difference in water intake was observed
same,toxicity,"male MC4RKO mice; ICV 2.5 to 5 nmols, conventional cages",Some toxicity was observed
same,adverse reactions,"male MC4RKO mice; fasting-refeeding, 5 nmols",some signs of adverse reactions
same,body weight vs saline,"male MC4RKO mice; fasting-refeeding, 5 nmols",no effect on mouse body weight
same,food intake vs saline,"male MC4RKO mice; fasting-refeeding, 5 nmols","decreased food intake at 2, 4, 6, 8 and 24 hours after compound administration"
same,body weight vs saline,"male MC4RKO mice; nocturnal paradigm, 5 nmols",significant increase in body weight 6 hours after compound administration
same,food intake vs saline,"male MC4RKO mice; nocturnal paradigm, 5 nmols",immediate reduction in food intake 2 hours after compound administration
same,tolerability,"male MC4RKO mice; nocturnal paradigm, 5 nmols",well handled; also recorded: looked healthy
same,reduction in BRET signal compared to basal signal,[1],~8%
